Tests used:
[1] = system: human B-cell lymphoma DOHH-2 cell subcutaneous xenograft tumor; experiment: In vivo anti-tumor efficacy in the DOHH-2 cell subcutaneous xenograft tumor model; set-up: species or system mice; details: DOHH-2 xenograft; for T/C (%) / TGI (%): intragastric, female CB-17 SCID mice
Description: The in vivo anti-tumor efficacy of compound 13 and AG-270 (MAT2A inhibitor,
were evaluated using a human B-cell lymphoma DOHH-2 cell subcutaneous xenograft tumor model.
The female CB-17 SCID mice used were purchased from Beijing Vital River Laboratory Animal Technology Co., Ltd. Tumor cell culture and subcutaneous inoculation: Human B-cell lymphoma DOHH-2 cells (DSMZ) were cultured in vitro in RPMI-1640 medium containing 10% fetal bovine serum and 1% […], and incubated in a 5% CO2 incubator at 37° C. When the required number of cells was reached, the cells were collected, and counted. 0.2 mL (10×10^6) of DOHH-2 cells (with matrix gel added, volume ratio of 1:1) were subcutaneously inoculated into the right back of each mouse. When the average tumor volume reached 100-150 mm^3, random grouping would begin, with 5 mice in each group. The administration group (compound 13 or compound AG-270) was performed intragastric administration twice a day (dosage shown in Table 3), while the negative control group was performed intragastric administration using the same volume of blank solvent per day.
The experimental indicator was to examine whether tumor growth was inhibited, delayed, or cured. The tumor diameter was measured twice a week using a vernier caliper. The formula for calculating tumor volume was: V=0.5a×b^2, wherein a and b indicated the long and short diameters of tumors, respectively.
The anti-tumor efficacy of the compound was evaluated using TGI (%) or relative tumor proliferation rate T/C (%).
TGI (%) reflects the tumor growth inhibition rate. Calculation of TGI (%). TGI (%)=[(1−(average tumor volume at the end of administration in the treatment group-average tumor volume at the beginning of administration in the treatment group))/(average tumor volume at the end of treatment in the negative control group-average tumor volume at the beginning of treatment in the negative control group)]×100%.
Relative tumor proliferation rate TIC (%): The calculation formula was as follows: T/C %=TRTV/CRTV×100% (TRTV: administration group RTV: CRTV: negative control group RTV). The calculation formula of the relative tumor volume (RTV) was RTV=Vt/V0, wherein V0 was the average tumor volume measured at the time of group administration (i.e. d0), Vt was the average tumor volume measured at a certain measurement, and TRTV and CRTV took the same day's data.

MAT2A = MAT2A (Homo sapiens (Human), UniProt P31153); experiment: Biochemical test: inhibition of MAT2A enzyme activity (phosphate detection, OD620); details: MAT2A his-tag; 150 minutes enzymatic reaction
Chain of MAT2A (P31153 whole entry): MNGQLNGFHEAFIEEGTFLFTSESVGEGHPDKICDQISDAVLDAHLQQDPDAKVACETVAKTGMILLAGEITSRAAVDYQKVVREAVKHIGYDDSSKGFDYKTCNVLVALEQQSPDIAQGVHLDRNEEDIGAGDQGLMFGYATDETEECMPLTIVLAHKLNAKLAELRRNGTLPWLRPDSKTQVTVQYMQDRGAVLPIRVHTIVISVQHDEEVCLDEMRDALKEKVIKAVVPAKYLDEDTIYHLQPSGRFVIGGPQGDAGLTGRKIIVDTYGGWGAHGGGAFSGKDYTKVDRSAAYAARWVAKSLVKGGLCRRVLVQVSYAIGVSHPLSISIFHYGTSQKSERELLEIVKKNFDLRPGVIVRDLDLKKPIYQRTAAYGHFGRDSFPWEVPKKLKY
From the text: Experimental principle: MAT2A can catalyze the conversion of L-methionine and ATP into SAM, inorganic phosphate, and inorganic diphosphate. By adding a chromogenic reagent to the enzymatic reaction system, the content of inorganic phosphates in a sample can be quantitatively detected, thereby characterizing the enzymatic activity of MAT2A.
Experimental material: Tris (Life Science #0497); BSA (Sigma #); MAT2A his-tag (BPS #71401-1); 384 well plate (Corning #3765); L-methionine (Admas #1100469); ATP (Sigma #A7699); MgCl2 (Sigma #M8266); KCl (Sigma #7447-40-7); Brij35 (Sigma #B4184); EDTA (Sigma #E1644)
1. 1×Assaybuffer (buffer composition: Tris, KCl, MgCl2, BSA, Brij35, and EDTA; the solvent was ultrapure water) was prepared. MAT2A his-tag enzyme solution (containing 1.3 μL of MAT2A enzyme and 998.7 μL of 1×Assaybuffer per 1000 μL) and substrate mixed solution (containing 5 μL of ATP, 1.3 μL of L-methionine, and 993.7 μL of 1×Assaybuffer per 1000 μL) were prepared using 1×AssayBuffer.
2. Preparation of compound concentration gradient: The test compound was tested with a starting concentration of 10 μM, and 10 equimolar concentrations were set according to a 3-fold dilution. Specifically, firstly, the compound was diluted into 10 different concentrations of series solutions in a 384 well plate (with final detection concentrations of 10, 3.33, 1.11, 0.37, 0.123, 0.041, 0.0137, 0.0046, 0.0015, and 0.0005 μM), and then 250 nL of the above series solutions was transferred to the 384 well reaction plate using an ultrasonic pipetting system Echo550 for later use. 250 nL of 100% DMSO was added into a negative control well and a positive control well, respectively. Double well test.
3. 15 μL of MAT2A his-tag enzyme solution was added into both the compound well and the positive control well; and 15 μL of 1×Assaybuffer was added into the negative control well.
4. The 384 well plate reaction plate was centrifuged at 1000 rpm for 60 seconds, shaken, mixed well, and incubated for 15 minutes. 10 μL of substrate mixed solution was added into each experimental well of the 384 well reaction plate to initiate the reaction.
5. The 384 well reaction plate was centrifuged at 1000 rpm for 60 seconds, shaken, mixed well, and incubated for 150 minutes.
6. 50 μL of enzyme reaction termination solution Biomol was added into all experimental wells of the 384 well reaction plate to terminate the reaction, centrifuged at 1000 rpm for 60 seconds, and incubated for 15 minutes. OD620 was read and data was processed.
Data analysis: the inhibition rate (%) of the compound was calculated and fitted to obtain the IC50 of the tested compound. Calculation method for compound inhibition rate: Compound inhibition rate (%)=(OD620_max−OD620_stample)/(OD620_max−OD620_min)×100, wherein OD620_stample was the absorbance value of the sample well; OD620 min was the absorbance value of the positive control well, indicating the reading of the wells without enzyme activity; and OD620_max was the absorbance value of the negative control well, indicating the reading of the well without compound inhibition.

KP-4 cells = experiment: Human pancreatic cancer KP-4 cell activity inhibition test (CellTiter-Glo); assay type: cell-based; details: 5 days
Description: Experimental principle: after co-incubating the MAT2A inhibitor to be tested with KP-4 cells for a period of time, a cell viability measurement method based on ATP content is used to characterize the effect of the tested compound on cell viability.
Experimental material: KP-4 cells (JCRB #JCRB0182); IMDM (Gibco 912440061); fetal bovine serum (EXCELL #FND500); penicillin-streptomycin (Gibco #15140-122); 0.25% Typsin-EDTA (Gibco #252(101-072); DMSO (Sigma #D2650); 96 well plate (Corning #3610); CellTiter-Glo (Promega #G7571)
1. KP-4 cells were cultured in IMDM culture medium containing 10% e fetal bovine serum and 1% penicillin-streptomycin at 37° C. and 5% CO2 in a cell culture incubator. Only cells in logarithmic growth phase were used for subsequent experiments.
2. The cells in logarithmic growth phase were inoculated into a 96 well plate, with a seeding quantity of 500 cells per well, and incubated overnight in a cell culture incubator at 37′C and 5% CO2.
3. The compound was dissolved with DMSO, diluted with culture medium to 10 different concentrations (approximately […]), 3333.3, 1111.1, 370, 123, 41.2, 13.7, 4.6, 1.5, and 0.5 nM) before adding it to the cell plate, and cultured at 37° C. and 5% CO2 for 5 days.
4. CellTiter-Glo reagent was added, and an enzyme-linked immunosorbent assay reader was used to detect cell viability.
Data analysis: the inhibition rate (%) of the compound was calculated and fitted to obtain the IC50 of the tested compound. Calculation method for compound inhibition rate: Compound inhibition rate (%)=(Signal_max−Signal_sample)/(Signal_max−Signal_min)×100, wherein Signal_sample was the sample well reading, indicating the cell activity of the compound inhibition well; Signal_min was the positive control well reading, indicating the background activity without cells; and Signal_max was the negative control well reading, indicating the cell activity of the well without compound inhibition.

IC50 (MAT2A)	IC50 (KP-4 cells; Homo sapiens, 120 h)	Structure (SMILES)	also measured
		COc1ccc(-c2c(Nc3ccccn3)[nH]c3c(C4=CCCCC4)c(-c4ccccc4)nn3c2=O)cc1 [AG-270, reference compound]	T/C (%) ([1]; 80 mg/kg, QD): 22.32%; TGI (%) ([1]; 80 mg/kg, QD): 82.92%
0.0151 µM	0.0074 µM	CCOc1c(-c2ccc(Cl)cc2)c(=O)n(-c2ccc3nn(C)cc3c2)c2[nH]ncc12 [Compound 13]	T/C (%) ([1]; 5 mg/kg, BID): 35.54%; TGI (%) ([1]; 5 mg/kg, BID): 68.82%; T/C (%) ([1]; 10 mg/kg, BID): 26.46%; TGI (%) ([1]; 10 mg/kg, BID): 78.48%; T/C (%) ([1]; 20 mg/kg, BID): 15.98%; TGI (%) ([1]; 20 mg/kg, BID): 89.67%; in vivo efficacy, in words ([1]; 5, 10, 20 mg/kg BID): dose-dependent in vivo efficacy
0.0186 µM	0.149 µM	CCOc1c(-c2ccc(OC(F)F)cc2)c(=O)n(-c2ccc3nn(C4CNC4)cc3c2)c2[nH]ncc12 [Compound 38]	
0.0162 µM	0.0015 µM	O=c1c(-c2ccc(Cl)cc2)c(OCC(F)(F)F)c2cn[nH]c2n1-c1ccc2nn(C3COC3)cc2c1 [Compound 93]	
0.0168 µM	0.427 µM	CCOc1c(-c2ccc(Cl)cc2)c(=O)n(-c2ccc3nn(C)nc3n2)c2[nH]ncc12 [Compound 137]	
0.0178 µM	0.0233 µM	CCNc1c(-c2ccc(OC(F)F)cc2)c(=O)n(-c2ccc3nn(C)cc3n2)c2[nH]ncc12 [Compound 129]	
0.0149 µM	0.0415 µM	CCOc1c(-c2ccc(Cl)cc2)c(=O)n(-c2ccc3ncn(C)c3c2)c2[nH]ncc12 [Compound 33]	
0.0139 µM	0.018 µM	CCOc1c(-c2ccc(F)cc2)c(=O)n(-c2ccc3nn(C)cc3c2)c2[nH]ncc12 [Compound 17]	
0.0206 µM	0.618 µM	CCNc1c(-c2ccc(OC)cc2)c(=O)n(-c2ccc(OC)cc2)c2[nH]ncc12 [Compound 10]	
0.0124 µM	0.0089 µM	CCOc1c(-c2ccc(Cl)cc2)c(=O)n(-c2ccc3nn(C)nc3c2)c2[nH]ncc12 [Compound 127]	
0.0157 µM	0.0083 µM	Cn1cc2cc(-n3c(=O)c(-c4ccc(C(F)(F)F)nc4)c(OCC4CC4)c4cn[nH]c43)ccc2n1 [Compound 104]	
0.0127 µM	0.0114 µM	CCOc1c(-c2ccc(OC(F)F)cc2)c(=O)n(-c2ccc3nn(C)cc3n2)c2[nH]ncc12 [Compound 41]	
0.0165 µM	0.16 µM	CCOc1c(-c2ccc(Cl)cc2)c(=O)n(-c2ccc3nn(CCN(C)C)cc3n2)c2[nH]ncc12 [Compound 132]	
0.0175 µM	0.0708 µM	CCNc1c(-c2ccc(OC)cc2)c(=O)n(-c2ccc3nn(C)cc3c2)c2[nH]ncc12 [Compound 2]	
0.0167 µM	0.0732 µM	Cn1cc2nc(-n3c(=O)c(-c4ccc(Cl)cc4)c(NCC4CC4)c4cn[nH]c43)ccc2n1 [Compound 107]	

Structure (SMILES)	IC50 (MAT2A)	IC50 (KP-4 cells; Homo sapiens, 120 h)	also measured
CCOc1c(-c2ccc(OC(F)F)cc2)c(=O)n(-c2ccc3ncn(C)c3c2)c2[nH]ncc12 [Compound 22]	0.016 µM		IC50 (KP-4 cells): 0.0281 µM

From patent US20260014125A1, “BICYCLIC-TYPE MAT2A INHIBITOR AND USE THEREOF” (HAIHE BIOPHARMA CO., LTD., priority 2022, published 2026)
